In brackets after ≈: the same amount, converted by molar mass.
Columns and labels:
[1] = tested on: Mannheimia haemolytica; experiment: minimum inhibitory concentration (MIC)
Experimental: (§1)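 Broth microdilution MIC (Sensititre BOPO7F bovine plate, CLSI methods) of 19 antimicrobials against field isolates of P. multocida, M. haemolytica, H. somni (deep nasopharyngeal swabs) and E. coli, Enterococcus spp. (rectal swabs) from weaned dairy heifers. Incubation 16-24 h at 35 C. MIC is the lowest concentration preventing visible growth. Values with <= or > lie at the tested range limits. Trimethoprim-sulfamethoxazole is given as the trimethoprim component of a 1:19 mixture.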

[2] = tested on: Enterococcus spp.; experiment: minimum inhibitory concentration (MIC)
Experimental: as §1

CCN1CCN(c2cc3c(cc2F)c(=O)c(C(=O)O)cn3C2CC2)CC1 [Enrofloxacin]
minimum inhibitory concentration [µg/mL]
Details | [1] | [2]
isolate (source animal id): 2 | – | 0.25 (≈ 0.696 µM)
isolate (source animal id): 8 | 0.5 (≈ 1.39 µM) | –
isolate (source animal id): 13 | 0.5 (≈ 1.39 µM) | –
isolate (source animal id): 18 | 0.5 (≈ 1.39 µM) | –
isolate (source animal id): 21 | 0.5 (≈ 1.39 µM) | –
isolate (source animal id): 25 | 0.5 (≈ 1.39 µM) | –
isolate (source animal id): 27 | 0.5 (≈ 1.39 µM) | –
isolate (source animal id): 28 | 1 (≈ 2.78 µM) | –
isolate (source animal id): 30 | 0.5 (≈ 1.39 µM) | –
isolate (source animal id): 31 | 1 (≈ 2.78 µM) | –
isolate (source animal id): 32 | 0.25 (≈ 0.696 µM) | –
isolate (source animal id): 34 | 0.5 (≈ 1.39 µM) | –
isolate (source animal id): 35 | – | > 2
isolate (source animal id): 36 | 0.5 (≈ 1.39 µM) | –
isolate (source animal id): 37 | 1 (≈ 2.78 µM) | –
isolate (source animal id): 40 | 0.5 (≈ 1.39 µM) | –
isolate (source animal id): 41 | 0.5 (≈ 1.39 µM) | –
isolate (source animal id): 42 | – | 0.5 (≈ 1.39 µM)
isolate (source animal id): 43 | 0.5 (≈ 1.39 µM) | –
isolate (source animal id): 44 | – | 0.5 (≈ 1.39 µM)
isolate (source animal id): 46 | 0.5 (≈ 1.39 µM) | –
isolate (source animal id): 49 | 0.5 (≈ 1.39 µM) | –
isolate (source animal id): 50 | 0.5 (≈ 1.39 µM) | –
isolate (source animal id): 51 | 0.5 (≈ 1.39 µM) | –
isolate (source animal id): 52 | 0.5 (≈ 1.39 µM) | –
isolate (source animal id): 53 | 0.5 (≈ 1.39 µM) | –
isolate (source animal id): 55 | 0.5 (≈ 1.39 µM) | –
isolate (source animal id): 56 | 0.5 (≈ 1.39 µM) | –
isolate (source animal id): 57 | > 2 | –
isolate (source animal id): 79 | – | 1 (≈ 2.78 µM)
isolate (source animal id): 88 | – | 0.25 (≈ 0.696 µM)
isolate (source animal id): 91 | – | 0.25 (≈ 0.696 µM)
isolate (source animal id): 92 | – | 1 (≈ 2.78 µM)
isolate (source animal id): 100 | 2 (≈ 5.56 µM) | –
isolate (source animal id): 103 | 0.5 (≈ 1.39 µM) | –
isolate (source animal id): 107 | 0.5 (≈ 1.39 µM) | –
isolate (source animal id): 108 | 0.5 (≈ 1.39 µM) | –
isolate (source animal id): 111 | – | 0.25 (≈ 0.696 µM)
isolate (source animal id): 112 | 0.5 (≈ 1.39 µM) | –
isolate (source animal id): 113 | > 2 | –
isolate (source animal id): 121 | 0.5 (≈ 1.39 µM) | –
isolate (source animal id): 122 | 0.5 (≈ 1.39 µM) | 1 (≈ 2.78 µM)
isolate (source animal id): 123 | > 2 | 0.5 (≈ 1.39 µM)
isolate (source animal id): 126 | 2 (≈ 5.56 µM) | –
isolate (source animal id): 133 | > 2 | 1 (≈ 2.78 µM)
isolate (source animal id): 135 | > 2 | –
isolate (source animal id): 138 | 2 (≈ 5.56 µM) | –
isolate (source animal id): 141 | > 2 | –
isolate (source animal id): 142 | 1 (≈ 2.78 µM) | –
isolate (source animal id): 145 | 1 (≈ 2.78 µM) | –
isolate (source animal id): 149 | ≤ 0.12 | –
isolate (source animal id): 151 | ≤ 0.12 | –
isolate (source animal id): 152 | 1 (≈ 2.78 µM) | –
isolate (source animal id): 154 | ≤ 0.12 | –
isolate (source animal id): 158 | – | 0.5 (≈ 1.39 µM)
isolate (source animal id): 159 | 1 (≈ 2.78 µM) | –
isolate (source animal id): 162 | 1 (≈ 2.78 µM) | –
isolate (source animal id): 168 | – | 0.5 (≈ 1.39 µM)
isolate (source animal id): 169 | – | 0.5 (≈ 1.39 µM)
isolate (source animal id): 170 | ≤ 0.12 | –
isolate (source animal id): 171 | ≤ 0.12 | 0.5 (≈ 1.39 µM)
isolate (source animal id): 172 | ≤ 0.12 | –
isolate (source animal id): 173 | ≤ 0.12 | –
isolate (source animal id): 175 | – | 1 (≈ 2.78 µM)
isolate (source animal id): 177 | – | 2 (≈ 5.56 µM)
isolate (source animal id): 179 | ≤ 0.12 | –
isolate (source animal id): 180 | ≤ 0.12 | –
isolate (source animal id): 181 | – | 0.5 (≈ 1.39 µM)
isolate (source animal id): 182 | – | 0.5 (≈ 1.39 µM)
isolate (source animal id): 183 | ≤ 0.12 | 0.5 (≈ 1.39 µM)
isolate (source animal id): 186 | ≤ 0.12 | –
isolate (source animal id): 187 | ≤ 0.12 | 0.5 (≈ 1.39 µM)
isolate (source animal id): 188 | ≤ 0.12 | –
isolate (source animal id): 190 | ≤ 0.12 | 0.5 (≈ 1.39 µM)
isolate (source animal id): 191 | ≤ 0.12 | –
isolate (source animal id): 192 | ≤ 0.12 | –
isolate (source animal id): 194 | – | 0.5 (≈ 1.39 µM)
isolate (source animal id): 195 | – | 0.5 (≈ 1.39 µM)
isolate (source animal id): 197 | – | 0.5 (≈ 1.39 µM)
isolate (source animal id): 201 | ≤ 0.12 | –
isolate (source animal id): 202 | ≤ 0.12 | –
isolate (source animal id): 209 | ≤ 0.12 | –
isolate (source animal id): 211 | ≤ 0.12 | 0.5 (≈ 1.39 µM)
isolate (source animal id): 214 | – | 1 (≈ 2.78 µM)
isolate (source animal id): 220 | ≤ 0.12 | –
isolate (source animal id): 221 | ≤ 0.12 | –
isolate (source animal id): 222 | – | 0.5 (≈ 1.39 µM)
isolate (source animal id): 223 | ≤ 0.12 | 0.25 (≈ 0.696 µM)
isolate (source animal id): 228 | – | 0.5 (≈ 1.39 µM)
isolate (source animal id): 230 | – | 0.5 (≈ 1.39 µM)
isolate (source animal id): 233 | 1 (≈ 2.78 µM) | –
isolate (source animal id): 235 | – | 0.5 (≈ 1.39 µM)
isolate (source animal id): 236 | – | 2 (≈ 5.56 µM)
isolate (source animal id): 237 | 1 (≈ 2.78 µM) | –
isolate (source animal id): 239 | – | 2 (≈ 5.56 µM)
isolate (source animal id): 241 | 1 (≈ 2.78 µM) | 0.5 (≈ 1.39 µM)
isolate (source animal id): 244 | – | 0.5 (≈ 1.39 µM)
isolate (source animal id): 246 | – | 0.5 (≈ 1.39 µM)
isolate (source animal id): 247 | – | 0.5 (≈ 1.39 µM)
isolate (source animal id): 250 | – | 0.25 (≈ 0.696 µM)
isolate (source animal id): 252 | 0.5 (≈ 1.39 µM) | > 2
isolate (source animal id): 253 | 0.5 (≈ 1.39 µM) | –
isolate (source animal id): 259 | > 2 | –
isolate (source animal id): 260 | 0.5 (≈ 1.39 µM) | –
isolate (source animal id): 262 | 1 (≈ 2.78 µM) | –
isolate (source animal id): 268 | – | 0.25 (≈ 0.696 µM)
isolate (source animal id): 282 | > 2 | 1 (≈ 2.78 µM)
isolate (source animal id): 285 | – | 1 (≈ 2.78 µM)
isolate (source animal id): 287 | 0.5 (≈ 1.39 µM) | –
isolate (source animal id): 288 | ≤ 0.12 | –
isolate (source animal id): 289 | – | 0.5 (≈ 1.39 µM)
isolate (source animal id): 290 | – | 0.5 (≈ 1.39 µM)
isolate (source animal id): 291 | ≤ 0.12 | –
isolate (source animal id): 293 | 0.5 (≈ 1.39 µM) | –
isolate (source animal id): 296 | – | 0.5 (≈ 1.39 µM)
isolate (source animal id): 298 | 0.5 (≈ 1.39 µM) | 0.5 (≈ 1.39 µM)
isolate (source animal id): 299 | 0.5 (≈ 1.39 µM) | –
isolate (source animal id): 300 | ≤ 0.12 | –
isolate (source animal id): 301 | – | 0.5 (≈ 1.39 µM)
isolate (source animal id): 302 | 0.5 (≈ 1.39 µM) | –
isolate (source animal id): 304 | 0.5 (≈ 1.39 µM) | –
isolate (source animal id): 306 | ≤ 0.12 | –
isolate (source animal id): 308 | ≤ 0.12 | –
isolate (source animal id): 309 | ≤ 0.12 | –
isolate (source animal id): 310 | – | 1 (≈ 2.78 µM)
isolate (source animal id): 313 | 0.5 (≈ 1.39 µM) | –
isolate (source animal id): 318 | 0.25 (≈ 0.696 µM) | –
isolate (source animal id): 320 | ≤ 0.12 | 0.5 (≈ 1.39 µM)
isolate (source animal id): 321 | 0.5 (≈ 1.39 µM) | –
isolate (source animal id): 323 | 0.5 (≈ 1.39 µM) | –
isolate (source animal id): 324 | 0.5 (≈ 1.39 µM) | –
isolate (source animal id): 326 | 0.5 (≈ 1.39 µM) | –
isolate (source animal id): 328 | 0.5 (≈ 1.39 µM) | –
isolate (source animal id): 329 | 0.5 (≈ 1.39 µM) | –
isolate (source animal id): 331 | – | 0.5 (≈ 1.39 µM)
isolate (source animal id): 333 | 0.5 (≈ 1.39 µM) | 0.5 (≈ 1.39 µM)
isolate (source animal id): 335 | 0.5 (≈ 1.39 µM) | –
isolate (source animal id): 338 | 0.5 (≈ 1.39 µM) | –
isolate (source animal id): 341 | – | > 2

Reference: the supplement of paper PMC8612539
